Columns and labels:
[1] = system: GUMC-403; test: AC50 for reduction of cell viability; higher = less potent; conditions: 48 h
[2] = system: GUMC-403; test: viability at highest tested concentration (max response) relative to DMSO (% of DMSO control); higher = less cytotoxic; conditions: library / dose series: MIPE library, 11-point 1:3 dilution, 48 h
In short: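 GUMC-403 papilloma cells, derived from a patient and expanded by conditional reprogramming, were dispensed at 700/well into 1536-well plates in 5 μL F + Y medium. A pin tool delivered 23 nL of each compound across an 11-point 1:3 dilution series for 48 h. CellTiter-Glo luminescence, read on a ViewLux, was normalised so that vehicle wells equalled 100% and empty wells 0%. Values report viability at the highest tested concentration relative to vehicle control.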

[3] = library / dose series: MIPE library, 11-point 1:3 dilution
[4] = library / dose series: NPC library, 8-point 1:5 dilution

Cc1cc(Nc2ncc3c(n2)N(C)C(=O)N(c2cc(NC(=O)c4cccc(C(F)(F)F)c4)ccc2C)C3)n(C)n1
AC50 for reduction of cell viability [1, 3]: 743 nM | viability ([2]; top concentration 46.1 µM): 53.5

CCCCN1CCC(CNC(=O)c2c3n(c4ccccc24)CCCO3)CC1
AC50 for reduction of cell viability [1, 3]: 16600 nM | viability ([2]; top concentration 46.1 µM): 23.8

CN(C)CCCN1c2ccccc2CCc2ccc(Cl)cc21
AC50 for reduction of cell viability [1, 3]: 1320 nM | viability ([2]; top concentration 46.1 µM): 36

Cn1cc(CNCC2CCN(c3ncc(C(=O)NO)cn3)CC2)c2ccccc21
AC50 for reduction of cell viability [1, 3]: 2960 nM | viability ([2]; top concentration 46.1 µM): 33.5

CC[S+](=O)([O-])c1cccc(-c2cc(C(=O)NC3CCN(C)CC3)c(C)c3[nH]c4ncc(C)cc4c23)c1
AC50 for reduction of cell viability [1, 3]: 4690 nM | viability ([2]; top concentration 46.1 µM): 75.8

Nc1cc(C(F)(F)F)c(-c2cc(N3CCOCC3)nc(N3CCOCC3)n2)cn1
AC50 for reduction of cell viability [1, 3]: 1480 nM | viability ([2]; top concentration 46.1 µM): 44

Cc1nc2cnc3ccc(C#Cc4cccnc4)cc3c2n1-c1ccc(C(C)(C)C#N)cc1
AC50 for reduction of cell viability [1, 3]: 93.5 nM | viability ([2]; top concentration 46.1 µM): 46.6

COC(=O)CCC1=C(C)C2=CC3=NC(=CC4=C(C)C(=C([NH]4)C=C\5N=C(C=C1[NH]2)\C(=C5C)CCC(O)=O)C=C)\C6=C\C=C(/[C@@H](C(=O)OC)[C@@]36C)C(=O)OC
AC50 for reduction of cell viability [1, 3]: 662 nM | viability ([2]; top concentration 46.1 µM): 32.5

Cc1n[nH]c2ccc(-c3cncc(OC[C@@H](N)Cc4c[nH]c5ccccc45)c3)cc12
AC50 for reduction of cell viability [1, 3]: 1870 nM | viability ([2]; top concentration 46.1 µM): 7.23

C[C@@H](Oc1ccc2[nH]nc(/C=C/c3cnn(CCO)c3)c2c1)c1c(Cl)cncc1Cl
AC50 for reduction of cell viability [1, 3]: 16600 nM | viability ([2]; top concentration 46.1 µM): 18.4

CC(=O)NCC(=O)N1[C@@H]2CC[C@H]1c1ccc(Nc3ncc(C(F)(F)F)c(NC4CCC4)n3)cc12
AC50 for reduction of cell viability [1, 3]: 18700 nM | viability ([2]; top concentration 46.1 µM): 4.61

CC/1=C(\O)C(=O)\C=C2/C1=C/C=C3\[C@@]2(C)CC[C@@]4(C)[C@@H]5C[C@@](C)(CC[C@]5(C)CC[C@]34C)C(O)=O
AC50 for reduction of cell viability [1, 3]: 8330 nM | viability ([2]; top concentration 46.1 µM): 6.06

C[C@@]12C(=O)OC(=O)[C@@]1(C)C1CCC2O1
AC50 for reduction of cell viability [1, 3]: 5900 nM | viability ([2]; top concentration 46.1 µM): 21.1

COc1ccc([C@@H]2CNC(=O)C2)cc1OC1CCCC1
AC50 for reduction of cell viability [1, 3]: 2960 nM | viability ([2]; top concentration 46.1 µM): 51

Cc1nc(N)sc1-c1ccnc(Nc2ccc(N3CCOCC3)cc2)n1
AC50 for reduction of cell viability [1, 3]: 26400 nM | viability ([2]; top concentration 46.1 µM): 29.8

C/C=C(/C)C(=O)O[C@H]1C(C)=C2[C@H]([C@@H]1OC(=O)CCCCCCC)[C@@](C)(OC(C)=O)C[C@H](OC(=O)CCC)[C@@]1(O)[C@H]2OC(=O)[C@@]1(C)O
AC50 for reduction of cell viability [1, 3]: 526 nM | viability ([2]; top concentration 46.1 µM): 57.2

COc1cccc2cc(-c3nc(C4CCC(C(=O)O)CC4)n4ncnc(N)c34)[nH]c12 (stereo not given)
AC50 for reduction of cell viability [1, 3]: 187 nM | viability ([2]; top concentration 46.1 µM): 59.5

CC(C)C[C@H](NC(=O)[C@H](Cc1ccccc1)NC(=O)c1cnccn1)B(O)O
AC50 for reduction of cell viability [1, 3]: 264 nM | AC50 for reduction of cell viability [1, 4]: 150 nM | viability ([2]; top concentration 46.1 µM): 3.84

CNC(=O)c1ccc(Nc2cc(Nc3ccccc3[S+](=O)([O-])C(C)C)c3cc[nH]c3n2)nc1
AC50 for reduction of cell viability [1, 3]: 18700 nM | viability ([2]; top concentration 46.1 µM): 10.4

O=C1c2ccccc2-[n+]2ccc3c([nH]c4ccccc43)c21
AC50 for reduction of cell viability [1, 3]: 4180 nM | viability ([2]; top concentration 46.1 µM): 3.22

CNC(=O)Nc1ccc(-c2nc(N3CC4CCC(C3)O4)c3cnn(C4CCC5(CC4)OCCO5)c3n2)cc1
AC50 for reduction of cell viability [1, 3]: 3.32 nM | viability ([2]; top concentration 46.1 µM): 62.9

O=C1\C=C(/OC2=C1C=CC=C2C3=CC=CC=C3)N4CCOCC4
AC50 for reduction of cell viability [1, 3]: 5900 nM | viability ([2]; top concentration 46.1 µM): 61.6

C=CCNC1=C2C[C@@H](C)C[C@H](OC)[C@H](O)[C@@H](C)/C=C(\C)[C@H](OC(N)=O)[C@@H](OC)/C=C\C=C(/C)C(=O)NC(=CC1=O)C2=O
AC50 for reduction of cell viability [1, 3]: 4180 nM | viability ([2]; top concentration 46.1 µM): 65.3

C[S+](=O)([O-])N1CCN(Cc2cc3nc(-c4cccc5[nH]ncc45)nc(N4CCOCC4)c3s2)CC1
AC50 for reduction of cell viability [1, 3]: 235 nM | viability ([2]; top concentration 46.1 µM): 55.1

CCC[S+](=O)([O-])Nc1ccc(F)c(C(=O)c2c[nH]c3ncc(-c4ccc(Cl)cc4)cc23)c1F
AC50 for reduction of cell viability [1, 3]: 5900 nM | viability ([2]; top concentration 46.1 µM): 54.9

CNC(=O)c1cccc(-c2ccc3c(N4CCOC[C@@H]4C)nc(N4CCOC[C@@H]4C)nc3n2)c1
AC50 for reduction of cell viability [1, 3]: 23.5 nM | viability ([2]; top concentration 46.1 µM): 59

CC[C@@H]1[C@@H](C)O[C@@](O)([C@@H](C)[C@H](O)[C@H](C)[C@H]2OC(=O)/C=C/C=C/[C@H](C)[C@@H]([C@@H](C)[C@@H](O)[C@H](C)[C@@]3(O)C[C@@H](O[C@H]4C[C@H](O)[C@H](O)[C@H](C)O4)[C@H](CC)[C@@H](C)O3)OC(=O)/C=C/C=C/[C@@H]2C)C[C@H]1O[C@H]1C[C@H](O)[C@H](O)[C@H](C)O1
AC50 for reduction of cell viability [1, 3]: 26400 nM | viability ([2]; top concentration 46.1 µM): 8.03

CN(C)CCN(C)C(=O)c1ccc(NC(=O)Nc2ccc(-c3nc(N4CCOCC4)c4ccn(CC(F)(F)F)c4n3)cc2)cc1
AC50 for reduction of cell viability [1, 3]: 118 nM | viability ([2]; top concentration 46.1 µM): 5.64

O=C(Nc1c[nH]nc1-c1nc2cc(CN3CCOCC3)ccc2[nH]1)NC1CC1
AC50 for reduction of cell viability [1, 3]: 6620 nM | viability ([2]; top concentration 46.1 µM): 8.38

CC1(C)OC/2=C(\[C@H](NCC3=CC=CC=C3)[C@@H]1O)C(=O)C4=CC=CC=C4C2=O
AC50 for reduction of cell viability [1, 3]: 7430 nM | viability ([2]; top concentration 46.1 µM): 5.84

O=C(NC1CCNCC1)c1n[nH]cc1NC(=O)c1c(Cl)cccc1Cl
AC50 for reduction of cell viability [1, 3]: 1050 nM | viability ([2]; top concentration 46.1 µM): 10.5

CC(C)[C@]12O[C@H]1[C@@H]3O[C@@]34[C@@]5(C)CC\C6=C(COC6=O)/[C@@H]5C[C@@H]7O[C@]47[C@@H]2O
AC50 for reduction of cell viability [1, 3]: 33.2 nM | viability ([2]; top concentration 46.1 µM): 22.7

CCc1ccc(OCc2ccccc2C(=O)Nc2ccc3nc(C)cc(N)c3c2)cc1
AC50 for reduction of cell viability [1, 3]: 10500 nM | viability ([2]; top concentration 46.1 µM): 4.25

COC(=O)Nc1ccc(-c2nc(N3CCOCC3)c3cnn(C4CCN(C(=O)OC)CC4)c3n2)cc1
AC50 for reduction of cell viability [1, 3]: 26.4 nM | viability ([2]; top concentration 46.1 µM): 13.8

FC(F)c1nc2ccccc2n1-c1nc(N2CCOCC2)nc(N2CCOCC2)n1
AC50 for reduction of cell viability [1, 3]: 418 nM | viability ([2]; top concentration 46.1 µM): 71.9

COC1=C(OCCCN2CCOCC2)C=CC\3=C1/N=C(/NC(=O)C4=CN=C(N)N=C4)N5CC/N=C35
AC50 for reduction of cell viability [1, 3]: 64.5 nM | viability ([2]; top concentration 23 µM): 43.9

CC(C)n1nc(-c2cc3cc(O)ccc3[nH]2)c2c(N)ncnc21
AC50 for reduction of cell viability [1, 4]: 1190 nM | viability ([2]; top concentration 46.1 µM): 69.2

CC[C@@]1(O)C(=O)OC\C2=C1\C=C\3N(CC4=C3N=C5C=CC=CC5=C4)C2=O
AC50 for reduction of cell viability [1, 3]: 16600 nM | viability ([2]; top concentration 46.1 µM): 32.3

CN(c1ncccc1CNc1nc(Nc2ccc3c(c2)CC(=O)N3)ncc1C(F)(F)F)[S+](C)(=O)[O-]
AC50 for reduction of cell viability [1, 3]: 7430 nM | viability ([2]; top concentration 46.1 µM): 28

Cc1cnc(Nc2ccc(N3CCN(C)CC3)cc2)nc1Nc1cccc([S+](=O)([O-])NC(C)(C)C)c1
AC50 for reduction of cell viability [1, 3]: 16600 nM | viability ([2]; top concentration 46.1 µM): 30.2

c1cncc(CN2CCC(n3ncc4c(N5CCOCC5)nc(-c5ccc6[nH]ccc6c5)nc43)CC2)c1
AC50 for reduction of cell viability [1, 3]: 332 nM | viability ([2]; top concentration 46.1 µM): 62.6

O=C(Nc1cc(C(F)(F)F)cc(C(F)(F)F)c1)c1cc(Cl)ccc1O
AC50 for reduction of cell viability [1, 3]: 1480 nM | viability ([2]; top concentration 46.1 µM): 70

Reference: the supplement of paper PMC6723410
